According to patent publication US20070212705A1, “P[…]-D CARBOX[…], EXPRESSION AND ACTIVITY” (priority 2005, published 2007):

Key:
[1] = biological target: E. coli LDC (Escherichia coli, UniProt P76008); test: LDC assay (tetrapeptide cleavage, Amplex Red detection) with E. coli LDC; format: biochemical
Protocol: (§1) The assay consists of two parts: (i) cleavage of peptide substrate by LDC enzyme, and (ii) detection of the D-Ala cleavage product using Amplex Red. Conditions for E. coli LDC cleavage were established using a modification of conditions presented by Templin et al. (1999). The cleavage assay was assembled in black 96 half area flat bottom plates (Costar, 3694) (Corning Life Sciences, Acton, Mass.) and consisted of LDC at the indicated concentration in 30 μl (microliters) of 100 mM (milliMolar) Tris-HCl pH 8.5 containing 25 μg/ml of bovine serum albumin (B4287 Sigma, St. Louis, Mo.). “Tetrapeptide Lys” substrate L-Ala-γ-D-Glu-L-Lys-D-Ala was synthesized by SynPep, Inc. (Dublin, Calif.). […] Inhibitor compounds were added to the enzyme in 2 μl of 30% dimethyl sulfoxide and incubated for 10 minutes at room temperature, prior to the addition of tetrapeptide. The negative control received 2 μl of 30% dimethyl sulfoxide alone without any compound.
(§2) The principle of the detection system is oxidation of D-Ala by the enzyme D-amino acid oxidase to produces hydrogen peroxide. […] The detection reaction was incubated for 30 minutes at 37° C., and the plates were read on a SpectraMax Gemini (excitation 530 nm, emission 590 nm) (Molecular Devices, Sunnyvale, Calif.). […]

[2] = biological target: T1, PA LDC (Pseudomonas aeruginosa, UniProt Q9HTZ1); test: LDC assay (tetrapeptide Lys cleavage, Amplex Red detection of D-Ala) with purified PA LDC; format: biochemical; conditions: 10 minutes preincubation at room temperature before tetrapeptide substrate, read-out: IC50, inhibition of PA LDC
T1 construct: hexahistidine (pET14b N-terminal leader) (N); made in house; host or cells: E. coli BL21 (plasmid pPALDC1, pET14b)
T1 sequence (Q9HTZ1 whole entry): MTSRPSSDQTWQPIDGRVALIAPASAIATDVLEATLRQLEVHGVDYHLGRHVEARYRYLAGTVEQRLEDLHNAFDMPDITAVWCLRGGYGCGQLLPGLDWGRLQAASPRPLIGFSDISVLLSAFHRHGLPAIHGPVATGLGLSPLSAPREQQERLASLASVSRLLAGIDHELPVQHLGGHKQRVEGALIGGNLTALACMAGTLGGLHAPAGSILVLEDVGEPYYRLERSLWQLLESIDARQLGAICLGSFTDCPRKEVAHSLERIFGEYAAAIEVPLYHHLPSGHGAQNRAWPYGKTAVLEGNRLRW
Protocol: as §1, §2

[3] = biological target: LDC (Escherichia coli, UniProt P76008); conditions: Templin et al., 1999; cited from earlier work
Chain of LDC (P76008 whole entry): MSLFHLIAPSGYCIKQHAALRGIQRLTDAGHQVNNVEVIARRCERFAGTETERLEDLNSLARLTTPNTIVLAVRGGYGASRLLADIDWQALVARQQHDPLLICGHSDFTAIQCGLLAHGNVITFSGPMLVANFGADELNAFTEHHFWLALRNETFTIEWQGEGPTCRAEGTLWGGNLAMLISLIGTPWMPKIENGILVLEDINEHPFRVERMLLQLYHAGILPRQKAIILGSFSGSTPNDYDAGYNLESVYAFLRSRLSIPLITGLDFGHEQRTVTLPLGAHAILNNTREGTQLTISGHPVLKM

Chain of E. coli LDC (P76008 whole entry): as above

Structure (SMILES)	IC50 [1]	IC50 [2]	Inhibition of LDC [3]
O=C(O)C=CC(=O)c1ccc2c(c1)NC(=O)CO2 [3,4-dihydro-g,3-dioxo-2H-1,4-Benzoxazine-6-crotonic acid]	12 µM	170 µM	–
O=C(Sc1nc2ccccc2nc1SC(=O)c1cc2ccccc2o1)c1cc2ccccc2o1 [2-Benzofurancarbothioic acid, S,S′-2,3-quinoxalinediyl ester]	1.4 µM	0.1 µM	–
N[C@H](CCOc1ccc(/C(=N/O)C(=O)N[C@H]2CN([C@@H](C(=O)O)c3ccc(O)cc3)C2=O)cc1)C(=O)O [Nocardicin A]	–	–	inhibited
